Results: patent US20250109139A1, “TRICYCLIC COMPOUND, AND PREPARATION METHOD THEREFOR AND USE THEREOF” (SHANGHAITECH UNIVERSITY, priority 2022, published 2025)
pEC50, pKi: −log10 of the molar value. Where two headings read alike, the source gives them in different places.

Columns and labels:
dopamine D2 receptors [1] = target: T1, dopamine D2 receptors (Homo sapiens (Human), UniProt P14416); assay: Dopamine D2 receptor radioligand competition binding assay ([3H]-Methylspiperone); settings: [3H]-Methylspiperone 0.3 to 0.5 nM, 293T membranes; for pKi: read-out: Affinity Ki
T1 sequence (P14416 whole entry): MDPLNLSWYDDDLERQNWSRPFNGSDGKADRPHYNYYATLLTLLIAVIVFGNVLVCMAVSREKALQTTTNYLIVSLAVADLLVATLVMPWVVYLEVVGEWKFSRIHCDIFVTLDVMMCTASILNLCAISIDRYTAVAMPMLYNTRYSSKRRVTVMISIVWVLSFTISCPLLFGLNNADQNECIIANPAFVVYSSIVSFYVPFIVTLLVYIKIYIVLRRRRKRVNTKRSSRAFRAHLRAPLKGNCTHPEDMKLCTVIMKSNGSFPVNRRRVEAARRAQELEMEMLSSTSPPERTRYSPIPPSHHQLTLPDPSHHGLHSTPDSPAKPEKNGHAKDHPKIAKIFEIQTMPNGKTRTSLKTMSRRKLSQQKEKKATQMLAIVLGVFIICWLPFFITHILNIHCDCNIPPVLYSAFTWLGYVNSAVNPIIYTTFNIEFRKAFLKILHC
Procedure: The affinity of the compounds of the present disclosure for dopamine D2 receptors was determined by a radioligand competition binding assay.
In the first step, a cell membrane component containing specific dopamine D2 receptors was prepared. A 10 cm culture dish was used for transfection with […] of dopamine D2 receptors and 40 μL of polyethylenimine (PEI hereafter). […] A vacuum pump was used to suck off the culture medium, 3 mL of lysis buffer was added to each culture dish, and the cells were placed in a 4° C. cold room for 10 minutes. After the cells were detached, the cells were transferred to a 15 mL centrifuge tube and centrifuged at 1500 rpm for 5 minutes at 4° C., and the supernatant was discarded. The cell pellet was transferred to a tissue homogenizer, and 3 mL of lysis buffer was added and fully ground until the cells were broken. Then, cell suspension was equally aliquoted into several EP tubes, centrifuged at 12000 rpm for 5 minutes at 4° C., and the supernatant was discarded. The precipitate was the cell membrane component containing the dopamine D2 receptors.
First, a standard binding buffer was added to the cell membrane component containing the dopamine D2 receptors, and the cell membrane was disrupted and resuspended with an electric tissue homogenizer. 30 μL of membrane protein suspension was added to each well of a 96-well plate. Then, 30 μL of different drugs were added to the 96-well plate sequentially from bottom to top to ensure that the final drug concentrations were 10^−5 M, 10^−6 M, 10^−7 M, 10^−8 M, 10^−9 M, and 0 M, with two replicates per treatment. Next, 30 μL of [3H]-Methylspiperone was added to each well of the 96-well plate. The plate was incubated at room temperature in the dark for 2 hours. Detection was conducted. The machine readout value reflected the amount of [3H]-Methylspiperone bound on the membrane, and after further data processing, the affinity Ki values of different compounds for the dopamine D2 receptors were obtained.

dopamine D2 receptors [2] = target: T1, dopamine D2 receptors; assay: Dopamine D2 receptor Gαi1 BRET (G protein trimer dissociation); format: cell-based; settings: for EC50: read-out: Gαi1 BRET pEC50 ± SEM (converted); for Emax: relative to endogenous ligand dopamine, read-out: Gαi1 BRET Emax % ± SEM; for pEC50: unit printed only in Cariprazine cell, read-out: Gαi1 BRET EC50
Procedure: (§1) To examine the downstream G-protein signaling pathway mediated by dopamine D2 receptors, on the first day, a 6 cm culture dish was used for transfection with 1 μg of dopamine D2 receptors, 1 μg of Gαi1 containing C-terminal seaweed luciferase (Gαi1-Rluc), 1 μg of Gβ3, 1 μg of Gγ9 containing C-terminal green fluorescent protein (Gγ9-GFP) mixed with 16 μL of PEI. At the same time, in order to examine the downstream β-arrestin2 signaling pathway mediated by dopamine D2 receptors, on the first day, a 6 cm culture dish was used for transfection with […] of dopamine D2 receptors containing C-terminal seaweed luciferase (D2-Rluc), […] of G protein-coupled receptor kinase 2 (GRK2), […] of β-arrestin2 containing N-terminal green fluorescent protein (GFP2-ARRB2) mixed with 14 μL of PEI. The next day, the confluent cells of a 6 cm culture dish were digested and reseeded into a 96-well plate with 100 μL of culture medium added to each well. On the third day, the drugs were added for test. The 96-well plate was taken out from the cell incubator to decant the culture medium, 40 μL of the substrate coelenterazine 400a (final concentration of 5 μM) was added to each well, and then 20 μL of different drugs were added sequentially from left to right to ensure that the final concentration of the drug decreased gradually from bottom to top, with two replicates per treatment. Finally, the prepared samples were loaded on machine for test. The machine readout value reflected the recruitment of β-arrestin2 to the membrane or the dissociation of G protein trimer. The former indicated the degree of activation of the β-arrestin2 signaling pathway downstream of the dopamine D2 receptors, and the latter indicated the degree of activation of the G protein signaling pathway downstream of the dopamine D2 receptors.

dopamine D2 receptors [3] = target: T1, dopamine D2 receptors; assay: Dopamine D2 receptor β-arrestin2 BRET (recruitment); format: cell-based; settings: for Emax: relative to endogenous ligand dopamine, read-out: β-arrestin2 BRET Emax % ± SEM; for pEC50: unit printed only in Cariprazine cell, read-out: β-arrestin2 BRET EC50
Procedure: as §1

5-HT2A receptors = 5-HT2A receptors (Homo sapiens (Human), UniProt P28223); assay: 5-HT2A receptor radioligand competition binding assay ([3H]-ketanserin)
Sequence of 5-HT2A receptors (P28223 whole entry): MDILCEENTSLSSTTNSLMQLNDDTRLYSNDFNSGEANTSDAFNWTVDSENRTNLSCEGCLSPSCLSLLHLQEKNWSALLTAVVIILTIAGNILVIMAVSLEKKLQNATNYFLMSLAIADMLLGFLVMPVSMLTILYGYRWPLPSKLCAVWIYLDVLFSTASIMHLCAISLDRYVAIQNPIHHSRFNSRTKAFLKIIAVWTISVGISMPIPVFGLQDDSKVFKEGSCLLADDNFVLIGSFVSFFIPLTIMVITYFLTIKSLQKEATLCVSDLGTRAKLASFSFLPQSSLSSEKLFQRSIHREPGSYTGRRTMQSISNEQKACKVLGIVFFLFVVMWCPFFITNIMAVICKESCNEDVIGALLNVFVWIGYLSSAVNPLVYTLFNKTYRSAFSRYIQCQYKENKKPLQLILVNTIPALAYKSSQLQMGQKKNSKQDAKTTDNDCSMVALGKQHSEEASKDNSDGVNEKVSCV
Procedure: The affinity of the compounds of the present disclosure for 5-HT2A receptors was determined by a radioligand competition binding assay. In the first step, a cell membrane component containing specific 5-HT2A receptor was prepared. A 10 cm dish was used for transfection with […] of 5-HT2A receptors and 40 μL of PEI. After 48 hours, the 10 cm dish was taken out from the cell incubator and the cultured cells had expressed the 5-HT2A receptors. A vacuum pump was used to suck off the culture medium, 3 mL of lysis buffer was added to each culture dish, and the cells were placed in a 4° C. cold room for 10 minutes. After the cells were detached, the cells were transferred to a 15 mL centrifuge tube and centrifuged at 1500 rpm for 5 minutes at 4° C., and the supernatant was discarded. The cell pellet was transferred to a tissue homogenizer, and 3 mL of lysis buffer was added and fully ground until the cells were broken. Then, cell suspension was equally aliquoted into several EP tubes, centrifuged at 12000 rpm for 5 minutes at 4° C., and the supernatant was discarded. The precipitate was the cell membrane component containing the 5-HT2A receptors. […] First, a standard binding buffer was added to the cell membrane component containing the 5-HT2A receptors, and the cell membrane was disrupted and resuspended with an electric tissue homogenizer. 30 μL of membrane protein suspension was added to each well of a 96-well plate. Then, 30 μL of different drugs were added to the 96-well plate sequentially from bottom to top to ensure that the final drug concentrations were 10^−5 M, 10^−6 M, 10^−7 M, 10^−8 M, 10^−9 M, and 0 M, with two replicates per treatment. Next, 30 μL of [^3H]-ketanserin was added to each well of the 96-well plate. The plate was incubated at room temperature in the dark for 2 hours. Detection was conducted. The machine readout value reflected the amount of [^3H]-ketanserin bound on the membrane, and after further data processing, the affinity Ki values of different compounds for the 5-HT2A receptors were obtained.

[4] = target: 5-hydroxytryptamine 1A (5-HT1A) receptors (Homo sapiens (Human), UniProt P08908); assay: 5-HT1A receptor Gαi1 BRET (G protein trimer dissociation); format: cell-based; settings: relative to endogenous ligand 5-hydroxytryptamine
Sequence of 5-hydroxytryptamine 1A (5-HT1A) receptors (P08908 whole entry): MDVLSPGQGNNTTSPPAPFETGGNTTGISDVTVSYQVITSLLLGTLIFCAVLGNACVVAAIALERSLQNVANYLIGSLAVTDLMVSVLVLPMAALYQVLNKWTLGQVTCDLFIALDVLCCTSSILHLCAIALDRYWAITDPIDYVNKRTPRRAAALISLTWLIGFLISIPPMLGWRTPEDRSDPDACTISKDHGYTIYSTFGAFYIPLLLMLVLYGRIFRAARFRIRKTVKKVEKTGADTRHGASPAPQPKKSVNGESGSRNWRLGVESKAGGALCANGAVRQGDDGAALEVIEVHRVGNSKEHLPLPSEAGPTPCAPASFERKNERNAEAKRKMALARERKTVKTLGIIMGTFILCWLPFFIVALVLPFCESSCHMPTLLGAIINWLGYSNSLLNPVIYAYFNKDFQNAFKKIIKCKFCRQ

[5] = [3H]-ketanserin, 293T membranes, read-out: Ki

pKi (dopamine D2 receptors [1])	Emax (dopamine D2 receptors [3]) [%]	pEC50 (dopamine D2 receptors [3])	Emax [4] [%]	SMILES	Affinity pKi ± SEM (dopamine D2 receptors [1])	other results
6.15	30	7.60	74.3	CCOc1cccc2c3c(oc12)CN(CCCCN1C(=O)CC(C)(C)CC1=O)CC3 [I-A45, 1-(4-(8-ethoxy-3,4-dihydrobenzofuro[2,3-c]pyridin-2(1H)-yl)butyl)-4,4-dimethylpiperidine-2,6-dione]	(6.14 ± 0.15)	–
–	–	–	22.3	CCOc1cccc2c3c([nH]c12)CN(CCC1CC(NC(=O)N(C)C)C1)CC3 (centres unmarked) [I-B11, 3-(3-(2-(8-ethoxy-1,3,4,9-tetrahydro-2H-pyrido[3,4-b]indol-2-yl)ethyl)cyclobutyl)-1,1-dimethylurea]	–	–
6.42	–	–	37.9	CCOc1cccc2c3c([nH]c12)CN(CC[C@H]1CC[C@H](NC(=O)N(C)C)CC1)CC3 [I-B8, 3-(trans-4-(2-(8-ethoxy-1,3,4,9-tetrahydro-2H-pyrido[3,4-b]indol-2-yl)ethyl)cyclohexyl)-1,1-dimethylurea]	(6.41 ± 0.16)	–
–	31	6.67	98.5	CCOc1cccc2c3c(oc12)CN(CCCCN1C(=O)CC2(CCCC2)CC1=O)CC3 [I-A46, 8-(4-(8-ethoxy-3,4-dihydrobenzofuro[2,3-c]pyridin-2(1H)-yl)butyl)-8-azaspiro[4.5]decane-7,9-dione]	–	–
–	21	6.69	75.9	CCOc1cccc2c3c(oc12)CN(CCCn1ncc(=O)n(C)c1=O)CC3 [I-A44, 2-(3-(8-ethoxy-3,4-dihydrobenzofuro[2,3-c]pyridin-2(1H)-yl)propyl)-4-methyl-1,2,4-triazine-3,5(2H,4H)-dione]	–	–

More lines, now with the values behind:

SMILES	pKi (dopamine D2 receptors [1])	Emax (dopamine D2 receptors [3]) [%]	pEC50 (dopamine D2 receptors [3])	Emax [4] [%]	Affinity pKi ± SEM (dopamine D2 receptors [1])	other results
COc1cccc2c3c(oc12)CN(CC1(O)CCCCC1)CC3 [I-A21, 1-((8-methoxy-3,4-dihydrobenzofuro[2,3-c]pyridin-2(1H)-yl)methyl)cyclohexan-1-ol]	6.28	59	7.63	–	(6.28 ± 0.28)	EC50 (dopamine D2 receptors [2]): 2.95 nM; Emax (dopamine D2 receptors [2]): 68%; pEC50 (dopamine D2 receptors [2]): 8.34; affinity for 5-HT2A receptors (in words) (5-HT2A receptors): very weak affinity; pKi (5-HT2A receptors; [5]): < 5.00
CCOc1cccc2c3c(oc12)CN(CCN1CCc2cc(C)ncc2C1=O)CC3 [I-A38, 2-(2-(8-ethoxy-3,4-dihydrobenzofuro[2,3-c]pyridin-2(1H)-yl)ethyl)-6-methyl-3,4-trihydro-2,7-naphthyridin-1(2H)-one]	–	–	–	–	–	Gαi1 BRET Emax % [4]: 116.2%
CCOc1cccc2c3c(oc12)CN(CCC1CC(NC(=O)N(C)C)C1)CC3 (centres unmarked) [I-A34, 3-(3-(2-(8-ethoxy-3,4-dihydrobenzofuro[2,3-c]pyridin-2(1H)-yl)ethyl)cyclobutyl)-1,1-dimethylurea]	6.22	33	8.55	38.4	–	Ki (dopamine D2 receptors [1]; read-out: Affinity pKi ± SEM (converted)): 617 nM
CC(C)Oc1cccc2c3c(oc12)CN(CCCCOc1ccc2ccc(=O)[nH]c2c1)CC3 [I-A18, 7-(4-(8-isopropoxy-3,4-dihydrobenzofuro[2,3-c]pyridin-2(1H)-yl)butoxy)quinolin-2(1H)-one]	–	–	–	81.9	(7.05 ± 0.09)	–
CCOc1cccc2c3c(oc12)CN(CCCCc1ccc2ccc(=O)[nH]c2c1)CC3 [I-A25]	–	78	7.26	78	–	EC50 (dopamine D2 receptors [2]): 2.04 nM; Emax (dopamine D2 receptors [2]): 40%; pEC50 (dopamine D2 receptors [2]): 8.88
CCOc1cccc2c3c(oc12)CN(CCCCOc1ccc2c(c1)NC(=O)CO2)CC3 [I-A30, 6-(4-(8-ethoxy-3,4-dihydrobenzofuro[2,3-c]pyridin-2(1H)-yl)butoxy)-2H-benzo[b][1,4]oxazin-3(4H)-one]	6.82	52	7.63	74.5	–	–
CCOc1cccc2c3c(oc12)CN(CCCOc1ccc2c(c1)OCO2)CC3 [I-A31, 2-(3-(benzo[d][1,3]dioxol-5-yloxy)propyl)-8-ethoxy-1,2,3,4-tetrahydrobenzofuro[2,3-c]pyridine]	–	–	–	104	–	–
CCOc1cccc2c3c(oc12)CN(CCCCOc1ccc2ccc(=O)[nH]c2c1)CC3 [I-A16, 7-(4-(8-ethoxy-3,4-dihydrobenzofuro[2,3-c]pyridin-2(1H)-yl)butoxy)quinolin-2(1H)-one]	7.78	–	7.95	85.9	(7.78 ± 0.41)	β-arrestin2 BRET pEC50 ± SEM (dopamine D2 receptors [3]): (7.94 ± 0.11); pKi (5-HT2A receptors): 5.88; affinity for 5-HT2A receptors (in words) (5-HT2A receptors): very weak affinity
CCOc1cccc2c3c(oc12)CN(CC1(O)CCCCC1)CC3 [I-A28, 1-((8-ethoxy-3,4-dihydrobenzofuro[2,3-c]pyridin-2(1H)-yl)methyl)cyclohexan-1-ol]	6.99	82	6.62	–	(6.99 ± 0.21)	EC50 (dopamine D2 receptors [2]): 44.7 nM; Emax (dopamine D2 receptors [2]): 27%; pEC50 (dopamine D2 receptors [2]): 7.49; affinity for 5-HT2A receptors (in words) (5-HT2A receptors): very weak affinity; pKi (5-HT2A receptors; [5]): < 5.00
